# Tests used:
# Format in all cases: cell-based, Human
# HeLa cells [1] = test: GFP-NLS transduction in presence of Cas9-RNP complex coated with small molecules; details: shuttle agent FSD250, up to 10 mM of the small molecule
# Experimental: HeLa cells were plated (20 000 cells/well) in a 96 well-plate the day prior to the experiment in DMEM containing 10% FBS. The Cas9-RNP complex coated with small molecules was prepared by mixing a Cas9-NLS recombinant protein (5 μM) complexed with a crRNA/tracrRNA (4 μM) targeting the beta-2 microglobulin (B2M) gene with 0, 100 nM, 1 μM, 10 μM, 100 μM, 1 mM or 10 mM of either 1,3-diaminoguanidine monohydrochloride, 3,5-diamino-1,2,4-triazole, guanidine hydrochloride or L-arginine amide dihydrochloride. The Cas9 RNP complex coated with small molecules was completed to […] with PBS. The delivery mix was prepared by mixing a synthetic peptide shuttle agent (10 μM), the GFP-NLS (10 μM) with or without the Cas9 RNP complex coated or not with small molecules and completed to 50 μL with phosphate-buffered saline PBS. […] Cells were then analyzed by flow cytometry.
# Hypothesizing that the inhibitory effect of the sgRNA was due to the negatively charged phosphate backbone of the RNA, we attempted to neutralize the negative charges by coating the Cas9-RNP complexes with small positively charged molecules prior to transduction. Delivery of GFP in HeLa cells in the presence of Cas9-RNP was assessed in the presence of small positively charged molecules such as 1,3-diaminoguanidine monohydrochloride; 3,5-diamino-1,2,4-triazole; guanidine hydrochloride; or L-arginine amide dihydrochloride.
# CFF-16HBEge cells [2] = test: Cas9-RNP delivery, B2M genome editing; details: B2M knockout, versus non-treated negative control
# Experimental: HeLa cells were plated (10 000 cells/well) in a 96 well-plate the day prior to the experiment in DMEM containing 10% FBS. CFF-16HBEge cells were plated (10 000 cells/well) in a 96 well-plate the day prior to the experiment in Alpha-MEM containing 10% FBS.
# (§1) For Cas9-RNP or ABE-Cas9-RNP transduction, a mix of Cas9-NLS or ABE-Cas9 recombinant protein (2.5 μM) complexed with a crRNA/tracrRNA (2 μM) targeting the beta-2 microglobulin (B2M) gene were co-incubated with 10-20 μM of synthetic peptide shuttle agent in a final volume of 50 μL completed with PBS. Cells were washed once with PBS and the shuttle/Cas9-RNP complex was added to the cells for and incubated for 60 to 90 seconds. Then 100 μL of DMEM (HeLa) or Alpha-MEM (CFF-16HBEge) containing 10% FBS was added to the mix. Cells were then immediately washed once with PBS and incubated in DMEM (HeLa) or Alpha-MEM (CFF-16HBEge) containing 10% FBS.
# Genome editing events resulting in the absence of B2M protein (knockout) at the cell surface were determined by flow cytometry 6 days post-transduction. Cells were washed once with PBS and incubated with the anti-B2 microglobulin antibody (PE conjugated) (0.5 μL of anti-B2M-PE in […] 0.5% BSA/PBS) for 45 minutes at room temperature. Cells were washed twice with PBS and detached with 50 µL of Trypsin-EDTA for 10 minutes at 37° C. then inactivated by adding 100 μL of media containing 10% FBS. The percentage of knockout cells (cells without B2M antibody signal) was determined by flow cytometry.
# A similar genome editing experiment as in Example 6 was performed in the Human Bronchial Epithelial cell line model of cystic fibrosis, CFF-16HBEge.
# (§2) Further transduction experiments in CFF-16HBEge cells were performed to compare the ability of shuttle agents to deliver functional Cas9-RNP genome editing versus ABE-Cas9-RNP base editing complexes. Variants of the shuttle agent FSD10 (FIG. 8A) were tested in parallel, and genome editing/base editing results as evaluated by next-generation sequencing (NGS) are shown in FIGS. 8B and 8C for Cas9-RNP and ABE-Cas9-RNP, respectively.
# CFF-16HBEge cells [3] = test: GFP transduction in the presence or absence of Cas9-RNP in CFF-16HBEge cells
# Experimental: (§3) HeLa cells were plated (20 000 cells/well) in a 96 well-plate the day prior to the experiment in DMEM containing 10% FBS. A mix was prepared containing a synthetic peptide shuttle agent (10-30 μM), the GFP-NLS (10 μM) with or without a Cas9-NLS recombinant protein (2.5 μM) complexed with a crRNA/tracrRNA (2 μM) targeting the beta-2 microglobulin (B2M) gene and completed to 50 μL with PBS. Cells were washed once with PBS and the shuttle/GFP-NLS/Cas9-RNP mix was added to the cells and incubated for one minute. Then 100 μL DMEM containing 10% FBS was added to the mix. Cells were then immediately washed once with PBS and incubated in DMEM containing 10% FBS for two hours. Cells were the analyzed by flow cytometry.
# The above transduction experiments were repeated with FSD10 and FSD375 in a Human Bronchial Epithelial cell line model of cystic fibrosis, CFF-16HBEge.
# HeLa cells [4] = test: GFP-NLS transduction in the presence or absence of Cas9-RNP complex, flow cytometry
# Experimental: as §3
# To better understand the inhibitory effect of Cas9-RNP on shuttle agent transduction activity, HeLa cells were incubated with different peptides/shuttle agents and GFP cargo, in the presence or absence of Cas9-RNP, and delivery of GFP was assessed by flow cytometry, as described in Example 1. […] For some shuttle agents, the effect was particularly striking. For example, the GFP transduction efficiency for FSD268 decreased from 92% to 29%, the GFP transduction efficiency for FSD250 decreased from 83% to 13%, the GFP transduction efficiency for FSD10 decreased from 76% to 22%, and the GFP transduction efficiency for FSD395 decreased from 91% to 17%. […] Structure-activity relationships were explored further by repeating the above transduction experiments with shuttle agent variants sharing the same “core” amphipathic cationic alpha helical region as FSD10-15 (FIG. 4A), CM18 (FIG. 4B), and FSD356 (FIG. 4C).
# CFF-16HBEge cells [5] = test: ABE-Cas9-RNP delivery, base editing evaluated by next-generation sequencing; details: NGS
# Experimental: as §1, §2
# HeLa cells [6] = test: Large-scale screening for propidium iodide (PI) transduction activity, flow cytometry; details: data not shown
# Experimental: HeLa cells were plated (20 000 cells/well) in a 96 well-plate the day prior to the experiment in DMEM containing 10% FBS. Each delivery mix comprising a synthetic peptide shuttle agent (10-30 μM) and the propidium iodide (PI) (10 μg/mL) were prepared and completed to 50 μL with PBS. Cells were washed once with PBS and the shuttle/PI mix was added to the cells and incubated for one minute. Then 100 μL DMEM containing 10% FBS was added to the mix. Cells were then immediately washed once with PBS and incubated in DMEM containing 10% FBS for two hours. Cells were then analyzed by flow cytometry. […]
# Due to the large number of peptides screened, negative controls were performed in parallel for each experimental batch and included a “no treatment” (NT) control in which the cells were not exposed to shuttle peptide or cargo, as well as a “cargo alone” control in which cells were exposed to the cargo in the absence of shuttle agent. […] Mean PI or GFP-NLS delivery score was calculated by multiplying the mean fluorescence intensity (of at least duplicate samples) measured for the viable PI+ or GFP+ cells by the mean percentage of viable PI+ or GFP+ cells, divided by 100,000 for GFP delivery or by 10,000 for PI delivery. […]
compound,measurement,setting,value
"Cl.N=C(NN)NN [1,3-diaminoguanidine monohydrochloride]",GFP transduction activity and Mean GFP delivery Scores in presence of Cas9-RNP coated with charge-neutralizing agent,HeLa cells [1],significantly inhibited
FSD375: FSD10-15 with flanking glycine/serine-rich residues (GGSGGGSKWKLARAFARAIKKLGGSGGGS; FSD375),genome editing with Cas9-RNP as cargo,CFF-16HBEge cells [2],significant genome editing
same,resistance to Cas9-RNP inhibition of GFP transduction,CFF-16HBEge cells [3],greater resistance to Cas9-RNP inhibition than FSD10
same,GFP transduction activity relative to FSD10-15,HeLa cells [4]; FIG. 4A,improving GFP transduction activity over FSD10-15
same,resistance/sensitivity of GFP transduction to inhibition by Cas9-RNP,HeLa cells [4]; presence vs absence of Cas9-RNP,retained the peptide's resistance to Cas9-RNP
same,base editing efficiency (ABE-Cas9-RNP),CFF-16HBEge cells [5],about 15%
FSD174 Scramble: negative control peptide known to have low or no GFP transduction activity (LGRSGRIKIGGWSALASRARQARGLKIWTQGRL; FSD174 Scramble),PI transduction efficiency relative to cargo alone negative control,HeLa cells [6],lower transduction efficiencies for PI

# From patent publication US20230399661A1, “SHUTTLE AGENT PEPTIDES OF MINIMAL LENGTH AND VARIANTS THEREOF ADAPTED FOR TRANSDUCTION OF CAS9-RNP AND OTHER NUCLEOPROTEIN CARGOS” (priority 2020, published 2023)
